Reference: patent publication US6770599B2, “Tetrazole derivatives” (Bayer CropScience KK, priority 2000, dated 2004)

How the values were obtained:
[1] = test system: Rotala indica (indian toothcup); test: Test Example 5: synergistic action by water surface application, ROTIN; format: in vivo; conditions: 75 g a.i./ha, run6, 4 weeks after application
From the text: (§1) Test for Synergistic Action by Water Sureface Application
(§2) In a greenhouse, paddy soil was filled in pots (250 cm^2), and seeds of weed (barnyardgrass, bulrush, monochoria, falsepimpemel, indian toothcup, waterwort and flatstage) were inoculated in the surface layer of the soil in the pots under wet conditions and covered with soil. All of the weed species were individually inoculated in each pot. Each pot was watered to 2 cm in depth and the depth was kept during the test period. When the weeds grew up to 1.5-2.2 leaf stage (or pair), a predetermined amount of the compound as a testing solution prepared in the same manner as the above-mentioned Test Example 4 was applied to the pots by water surface treatment method. The herbicidal effect was evaluated at 4 weeks after the application on the same scale as in thetest method of Test Example 4.
(§3) Synergistic action of Test Example 4 and Test Example 5 were evaluated by Colby's equation. [formula]
(§4) E: expected herbicidal activity at p+q g/ha
(§5) X: the percentage of herbicidal activity at p g/ha
(§6) Y: the percentage of herbicidal activity at q g/ha

[2] = test system: Lindernia pyridaria (flasepimpernel); test: Test Example 5: synergistic action by water surface application, LIDPY; format: in vivo; conditions: 75 g a.i./ha, run6, 4 weeks after application
From the text: as §1, §2, §3, §4, §5, §6

Row | melting point [°C] | SMILES | Herbicidal efficacy, known herbicide [1] [%] | Herbicidal efficacy, known herbicide [2] [%]
1 | 67 to 71 | CCn1nnnc1SCc1c(S(C)(=O)=O)ccc(C(=O)C2C(=O)CCCC2=O)c1Cl |  | 
2 | 76 to 87 | Cn1nnnc1SCc1c(S(C)(=O)=O)ccc(C(=O)C2=C(Sc3ccccc3)CCCC2=O)c1Cl |  | 
3 |  | CCC1(CC2(c3cccc(Cl)c3)CO2)C(=O)c2ccccc2C1=O (racemic) [G, (RS)-2-[2-(3-chlorophenyl)2,3-epoxypropyl]-2-ethylindan-1,3-dione] | 60 | 60
